Reference: ChEMBL document CHEMBL1949661, “Hit to lead evaluation of 1,2,3-triazolo[4,5-b]pyridines as PIM kinase inhibitors” (Bioorg Med Chem Lett, 2012)

Experiments:
[1] = Metabolic stability in Sprague-Dawley rat liver microsomes assessed as compound remaining at 1 uM after 15 mins; format: ADME, Microsome; details: read-out: Stability
[2] = Plasma clearance in BALB/C mouse at 5 mg/kg, iv; format: ADME, organism-based; set-up: dose 5 mg/kg, route intravenous
[3] = Metabolic stability in CD-1 mouse liver microsomes assessed as compound remaining at 1 uM after 15 mins; format: ADME, Microsome; details: read-out: Stability
[4] = Metabolic stability in human liver microsomes assessed as compound remaining at 1 uM after 15 mins; format: ADME, Microsome; details: read-out: Stability
[5] = Half life in BALB/C mouse plasma at 5 mg/kg, iv; format: ADME, organism-based; set-up: dose 5 mg/kg, route intravenous

For `COc1cc(NCC2CCNCC2)nc2c1nnn2-c1cccc(OC(F)(F)F)c1`, the remaining at […], 1 µM [1] was 91%, the clearance [2] was 54.7 mL/min/kg and the remaining at […], 1 µM [3] was 80%. The remaining at […], 1 µM [4] was 97% and the half-life [5] was 57 min.
